{
  "source": "patent US10058520B2",
  "about": "“Compositions and methods for treating alzheimer's disease and dementia” (Department of Veterans Affairs, priority 2007, dated 2018)",
  "key": {"[1]": {"test_system": "human Aβ 1-40 and 1-42", "assay": "ELISA for human Aβ in brain of huAPP transgenic mice treated with CHP+Zn", "format": "in vivo, human APP transgenic mice", "details": "1.0 mg/L CHP+10 mg/L Zn, or Zn or CHP alone, n=9, FIG. 14", "source_text": "According to our studies, CHP in combination with a zinc salt decreases Aβ 1-40 and 1-42 in mice transgenic for human APP. […]\nIn some embodiments, higher doses are effective as well."}, "[2]": {"test_system": "insulin levels", "details": "previous studies; concentration dependent relative to the amount of zinc; cited from earlier work"}, "[3]": {"details": "humans and mice; previous studies; cited from earlier work"}, "[4]": {"test_system": "APP secretion in SH-SY5Y and LA-N-5 human neuroblastoma cell lines and NHNP neuronal progenitor cells", "assay": "APP isoform secretion in human neuroblastoma and neuronal progenitor cells (western blot)", "format": "cell-based", "details": "differentiated (+RA) and undifferentiated (-RA) SH-SY5Y, all tested human cell lines, 24 hours of treatment, FIG. 1"}, "[5]": {"details": "blood, after a single dose; cited from earlier work"}, "[6]": {"test_system": "+356/+755 region of the first intron of the mouse mdm2 gene in LA-N-5 neuroblastoma cells and HCC1806 breast cancer cells", "assay": "pGL3MDM2 reporter transfection assay", "format": "cell-based", "details": "LA-N-5 and p53 negative HCC1806 cells; FIG. 8 (treatment with T3)", "source_text": "In order to evaluate the direct effect of thyroid hormone on mdm2 gene expression, we cloned the +356/+755 region from the first intron of the mouse mdm2 gene into pGL3-Promoter vector (pGL3MDM2) for use in transfection assays. This region contains an element which binds monomers and homodimers of TRα, in addition to heterodimers of TRα and RXRβ."}, "[7]": {"test_system": "human Aβ 1-40 and 1-42", "assay": "ELISA for human Aβ in brain of R1.40 huAPP transgenic mice treated with T4", "format": "in vivo, R1.40 human APP transgenic mice", "source_text": "In another study, we discovered that thyroid hormone down-regulates Aβ 1-40 and 1-42 in mice transgenic for the human APP gene. […] R1.40 human APP transgenic mice contain the entire human APP gene carried on a yeast artificial chromosome.\nMice used in these studies carried the complete human APP gene (huAPP), including the 5′ upstream promoter region, inserted into a yeast artificial chromosome (YAC) construct and are referred to as huAPP-YAC transgenic mice (R1.40 strain). The huAPP gene in these mice contained the Swedish mutation and is expressed in high pathology brain regions.\nR1.40 mice were implanted with T4 containing slow release pellets for three weeks and ELISA specific for human Aβ was performed utilizing normalized protein from mouse brain cytosols. We observed a 30% decrease in human Aβ 1-42 levels and a 25% decrease in Aβ 1-40 levels in mice treated for three weeks with T4. […] Thus, it has been shown that low level thyroid hormone therapy substantially decreases human Aβ40 and Aβ42 levels in both normal and hypothyroid transgenic mice (n=9 animals per group ±SD)."}, "[8]": {"test_system": "APP isoforms", "assay": "Western blot with anti-APP antibody on hemisected brain extracts", "format": "in vivo, mice", "details": "day 21, FIG. 4", "protocol": "In FIG. 4, Western blots were performed utilizing anti-APP antibody on protein from the hemisected brain extracts."}, "[9]": {"test_system": "APP gene", "assay": "RT-PCR of APP mRNA in brain of normal mice", "format": "in vivo", "details": "normal mouse brain, day 21; FIG. 2 and 3; APP 751 mRNA for hypothyroid mice", "excerpt": "On day 21, animals were killed, whole brains were removed and hemisected for protein and RNA analysis, and serum was collected for T4 analysis."}, "[10]": {"details": "R1.40 mice, T4 slow release pellets for three weeks, brain cytosols, ELISA"}},
  "data": [
    {"molecule": "[Zn]", "note": "[Zn]", "values": [
      {"measurement": "brain levels of soluble and insoluble Aβ40 and Aβ42 vs control", "setting": "[1]", "result": "no significant changes"}
    ]},
    {"molecule": "O=C1N[C@@H](Cc2cnc[nH]2)C(=O)N2CCC[C@@H]12", "note": "[CHP, cyclo-Hispro]", "values": [
      {"measurement": "insulin levels", "setting": "[2]", "result": "does not decrease"},
      {"measurement": "brain levels of soluble and insoluble Aβ40 and Aβ42 vs control", "setting": "[1]", "result": "no significant changes"},
      {"measurement": "toxicity", "setting": "[3]", "result": "non-toxic"}
    ]},
    {"molecule": "N[C@@H](Cc1cc(I)c(Oc2ccc(O)c(I)c2)c(I)c1)C(=O)O", "note": "[T3, L-triiodothyronine]", "values": [
      {"measurement": "APP secretion", "setting": "[4]", "result": "negative hormonal regulation of APP secretion in a concentration dependent manner"},
      {"measurement": "half-life", "setting": "[5]", "result": "hours"}
    ]},
    {"molecule": "thyroid hormone", "values": [
      {"measurement": "reporter expression of pGL3MDM2", "setting": "[6]", "result": "negative regulation"}
    ]},
    {"molecule": "CCCc1cc(=O)[nH]c(=S)[nH]1", "note": "[propylthiouracil]", "values": [
      {"measurement": "brain Aβ levels in hypothyroid animals", "setting": "[7]; iodine-deficient PTU diet for three weeks, FIG. 6", "result": "increase"},
      {"measurement": "expression of APP isoforms (western blot) relative to euthyroid animals", "setting": "[8]", "result": "increased"},
      {"measurement": "APP mRNA levels (RT-PCR) vs control animals", "setting": "[9]", "result": "increased"}
    ]},
    {"molecule": "NC(Cc1cc(I)c(Oc2cc(I)c(O)c(I)c2)c(I)c1)C(=O)O", "note": "(stereo not shown) [T4, 3:5,3′:5′ tetra-iodothyronine]", "values": [
      {"measurement": "decrease in Aβ 1-40 levels", "setting": "[7]; [10]", "result": 25, "unit": "%"},
      {"measurement": "decrease in human Aβ 1-42 levels", "setting": "[7]; [10]", "result": 30, "unit": "%"},
      {"measurement": "half-life", "setting": "[5]", "result": "several days"}
    ]}
  ]
}
